In general, IC50 refers to the concentration that gives 50% inhibition.

This assay has as its target P. falciparum apicoplast DNA polymerase (Pf-apPOL) (Plasmodium falciparum, UniProt Q8ILY1). Description: Fluorescence-based high-throughput DNA polymerase assay (molecular beacon), primary screen and dose-response.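 For % inhibition ApPOL 90': test concentration in µM.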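 For % inhibition apPOL 180': test concentration in µM.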 The class given is biochemical. To be noted: for DNA Pol: 90 min, 10 µM; for IC50: supplemental file 2, sheet IC50 nontoxic compounds, Pf-apPOL. Put shortly:
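Single-point screening used 10 µM compound with 20 nM polymerase, 20 nM hairpin substrate and 6 µM dNTPs for 90 min at 25 °C. Confirmatory titrations (2.5–80 µM) followed fluorescence at three times, and IC50 was derived from a fit including a cooperativity term n.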

Sequence of P. falciparum apicoplast DNA polymerase (Pf-apPOL) (Q8ILY1 entry or part of it): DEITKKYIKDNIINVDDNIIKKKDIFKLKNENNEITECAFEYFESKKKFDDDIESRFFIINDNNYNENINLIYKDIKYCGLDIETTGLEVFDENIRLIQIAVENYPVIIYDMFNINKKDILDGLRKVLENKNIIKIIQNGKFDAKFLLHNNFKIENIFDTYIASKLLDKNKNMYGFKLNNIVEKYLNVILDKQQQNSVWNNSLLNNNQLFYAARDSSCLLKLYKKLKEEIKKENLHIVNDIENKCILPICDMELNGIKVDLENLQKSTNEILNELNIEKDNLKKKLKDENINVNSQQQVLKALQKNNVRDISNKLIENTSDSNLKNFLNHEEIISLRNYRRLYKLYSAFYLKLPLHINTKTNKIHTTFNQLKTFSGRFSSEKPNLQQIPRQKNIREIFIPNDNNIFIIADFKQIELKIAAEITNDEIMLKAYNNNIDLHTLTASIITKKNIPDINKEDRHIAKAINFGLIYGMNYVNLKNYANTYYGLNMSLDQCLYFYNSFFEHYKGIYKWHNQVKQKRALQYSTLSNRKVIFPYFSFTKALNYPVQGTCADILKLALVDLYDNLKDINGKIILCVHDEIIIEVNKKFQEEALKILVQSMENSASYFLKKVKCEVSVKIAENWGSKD

Regarding `N#CC(C#N)=C1SCN(c2cccc(Cl)c2)CS1` [Molecule 29, N#CC(=C1SCN(CS1)c1cccc(c1)Cl)C#N], the “DNA Pol” value runs as follows: ('DNA Pol' of the 186 hits list (screen value)) 95; (primary screen value, "DNA Pol") 95. The “% inhibition Apo pol 10'” value is recorded as 21.8228% (DRC-1, conc 2.5); 35.73% (DRC-1, conc 5); 36.478% (DRC-1, conc 10); 90.158% (DRC-1, conc 20); 91.3949% (DRC-1, conc 40); 94.8229% (DRC-1, conc 80). For the same compound, the “% inhibition Apol 90'” value was 12.5059% (DRC-1, conc 2.5); 27.1845% (DRC-1, conc 5); 28.2977% (DRC-1, conc 10); 85.5173% (DRC-1, conc 20); 87.9667% (DRC-1, conc 40); 95.5447% (DRC-1, conc 80). Further, the “% inhibition apPOL 180'” value worked out at 2.521% (DRC-1, conc 2.5); 13.8215% (DRC-1, conc 5); 15.4746% (DRC-1, conc 10); 81.5285% (DRC-1, conc 20); 85.2905% (DRC-1, conc 40); 94.962% (DRC-1, conc 80). For the same compound, the “% inhibition apPOL 180'” value stood at 10% (DRC-2, conc 2.5); 31% (DRC-2, conc 5); 48% (DRC-2, conc 10); 62% (DRC-2, conc 20); 73% (DRC-2, conc 40); 81% (DRC-2, conc 80). The “% inhibition apPOL 180'” value (DRC-2, concentration 40) came out at 73%. In addition, the “% inhibition Apo pol 5'” value (DRC-2, conc 2.5) was determined as 14%; the “% inhibition Apo pol 5'” value (DRC-2, conc 5) is listed as 34%; the “% inhibition Apo pol 5'” value (DRC-2, conc 10) is given as 45%; the “% inhibition Apo pol 5'” value (DRC-2, conc 20) stood at 55%; the “% inhibition Apo pol 5'” value (DRC-2, conc 40) is 60%; the “% inhibition Apo pol 5'” value (DRC-2, conc 80) worked out at 60%. The “% inhibition Apo pol 5'” value was determined as 60% (DRC-2, concentration 40) and 60% (DRC-2, concentration 80). The “% inhibition Apol 40'” value (DRC-2, conc 2.5) is 20%; the “% inhibition Apol 40'” value (DRC-2, conc 5) came to 42%; the “% inhibition Apol 40'” value (DRC-2, conc 10) stood at 56%; the “% inhibition Apol 40'” value (DRC-2, conc 20) was 65%; the “% inhibition Apol 40'” value (DRC-2, conc 40) is 73%; the “% inhibition Apol 40'” value (DRC-2, conc 80) is recorded as 76%. Besides, the “% inhibition Apol 40'” value was found to be 56% (DRC-2, concentration 10) and 73% (DRC-2, concentration 40). Also, the “% inhibition ApPOL 90'” value runs as follows: (DRC-2, conc 2.5) 17%; (DRC-2, conc 5) 41%; (DRC-2, conc 10) 56%; (DRC-2, conc 20) 66%; (DRC-2, conc 40) 75%; (DRC-2, conc 80) 79%. In addition, the “% inhibition ApPOL 90'” value (DRC-2, concentration 10) was found to be 56%.

`N#CC(C#N)=C1SCN(c2cccc(Cl)c2)CS1` [Molecule 29]: the concentration for half-maximal inhibition (IC50) worked out at 11.9 µM.

On to `O=C(c1ccccc1)N1CCc2c(nc3cc(-c4ccccc4)[nH]n3c2=O)C1` [Molecule 30], for which the half-maximal inhibitory concentration (IC50) stood at 9.54 µM.

(Values after PMC9090415, “Discovery of small molecule inhibitors of Plasmodium falciparum apicoplast DNA polymerase” (Journal of Enzyme Inhibition and Medicinal Chemistry, 2022).)
